Our source for the RP-LC retention time values is the METLIN SMRT retention time set (Domingo-Almenara et al. 2019).

A short description of this data set: gradient 5% acetonitrile 3 min, to 50% in 2 min, to 85% in 15 min, held 3 min, 100 µL/min. To be noted: column: Zorbax Extend-C18 2.1 x 50 mm; eluents: water / acetonitrile, 0.1% formic acid. The procedure, abridged: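 Using water and acetonitrile that each contained 0.1% formic acid, mixtures of ~100 pure standards were separated at 100 μL/min on a Zorbax Extend-C18 column (2.1 × 50 mm, 1.8 μm). The HPLC fed a quadrupole time-of-flight mass spectrometer working in positive and negative ionization mode, with dead and dwell volumes of 40 μL and 900 μL. Data were acquired over 3 months. Retention time was read from computationally picked adduct peaks after manual inspection of each.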
As for `O=S(=O)(c1ccccc1)N1CC(n2cc(COc3ccc(F)cc3)nn2)C1`, the RP-LC retention time is 888 s. Consider `O=C(NCc1ccco1)Nc1ccc([N+](=O)[O-])cc1`, for which the RP-LC retention time was found to be 852 s. For the compound `Cc1cc(NCCN(C)C)n2nc(-c3ccccc3)c(C)c2n1`, the RP-LC retention time came to 572 s.

Compound `CCCNC(=O)C1CCN(c2ccc(SCC(=O)Nc3cccc(C(F)(F)F)c3)nn2)CC1` registered an RP-LC retention time of 723 s.

On to `CCn1c(-c2cccc(C(=O)NCc3cccs3)c2)nc2cccnc21`, for which the RP-LC retention time was determined as 733 s. Take `Cc1cccc(NS(=O)(=O)c2cc3n(c2)CCCNC3=O)c1`: the RP-LC retention time was determined as 652 s.

For `O=C([C@@H]1C[C@H](Oc2ccccc2)CN1C(=O)CCCc1c[nH]c2ccccc12)N1CCCC1`, the RP-LC retention time worked out at 865 s. As for `CC(=O)c1cccc(Nc2c(C(=O)N3CCCC3)cnc3nc(C)ccc23)c1`, the figure is 587 s; as for `COC(=O)c1c(C)c(C(=O)C(C)N(Cc2ccc(F)cc2)C(=O)C2CCCC2)c(C)n1C` (stereo not drawn), 1090 s. Then `Cc1ccc(S(=O)(=O)N2CCC(n3c(-c4ccoc4)nc4cccnc43)C2)cc1Cl` (stereo not drawn), with 986 s; and `COc1ccc(NC(=O)C2CCN(c3nc4ccc(-c5cncnc5)nc4s3)CC2)cc1`, with 860 s. The compound `Cc1cccc(-c2noc(C3CCCN3C(=O)c3ccc4c(c3)OCO4)n2)c1` (stereo not drawn) returned an RP-LC retention time of 997 s. `O=C(NCCCN1CCCC1=O)c1ccc2ccnc(N3CCN(c4ccc(F)cc4)CC3)c2c1`: the RP-LC retention time stood at 647 s.

In turn, `Cc1nc(-c2ccc(C)c(S(=O)(=O)NCCN(C)C)c2)cs1` had an RP-LC retention time of 612 s. `CN(C)CCCOc1nn(Cc2ccccc2)c2ccccc12` had an RP-LC retention time of 750 s. The compound `Cc1cc(Cl)ccc1-n1ncc2c(N3CCN(CCO)CC3)ncnc21` returned an RP-LC retention time of 613 s.

`COc1ccc(S(=O)(=O)N2CC3CN(C(=O)c4ccncc4)CC(C2)O3)cc1` displayed an RP-LC retention time of 621 s. On to `COc1cccc(-c2c(C(=O)O)nnn2Cc2ccccc2F)c1`, for which the RP-LC retention time was determined as 776 s.

As for `CCSc1nnc(NC(=O)CCc2c(C)n[nH]c2C)s1`, the RP-LC retention time came out at 584 s. `CN(CCCNC(=O)c1ccc2c(c1)N(C)C(=O)C1CCCCN21)Cc1ccccc1` (stereo not drawn): the RP-LC retention time worked out at 643 s. Turning to `CCc1ccc(CNC(=O)Cc2nnc(-c3ccccn3)o2)cc1`, the RP-LC retention time is 743 s.

Compound `COc1ccc2c(C)c(C(=O)Nc3cc(C)ns3)oc2c1` returned an RP-LC retention time of 826 s. `O=C1[C@H]2CN(Cc3ccc(F)cc3Cl)C[C@H]2C(=O)N1Cc1ccc2c(c1)OCO2`: the RP-LC retention time amounted to 992 s. Then `O=C(Nc1ccccc1C(=O)NCCC1=CCCCC1)C1=CSCCO1`, with 1090 s; and `C=CCn1c(=O)c2ccccc2n(Cc2nc(-c3ccccc3C)no2)c1=O`, with 1080 s. Regarding `CSc1nc(N2CCCC2)c2cnn(CCNC(=O)CSc3ccc(F)cc3)c2n1`, the RP-LC retention time amounted to 829 s. In the case of `Cn1cnnc1SCCNC(=O)c1ccc(OCC(=O)C2CC2)cc1`, the RP-LC retention time was 603 s. With `CNC(=O)[C@@H]1CN(C(=O)Cc2ccc(Br)cc2)C[C@H]1CO`, the RP-LC retention time came to 604 s. Regarding `OC(c1cc(C(F)(F)F)nc2c(C(F)(F)F)cccc12)C1CCCCN1` (stereo not drawn), the RP-LC retention time came to 754 s. As to `COc1ccc(Cl)cc1NS(=O)(=O)c1cc2c(s1)CCN(C(=O)C1CCC1)C2`, the RP-LC retention time turned out to be 973 s.

With `CC(=O)NCC(=O)NCc1nn(Cc2ccccc2)c2ccccc12`, the RP-LC retention time turned out to be 679 s.

`Cc1ccc(-c2cc(-c3cc(-c4ccc(C)cc4C)n[nH]3)[nH]n2)c(C)c1` yielded an RP-LC retention time of 1070 s.

Regarding `CCOC(=O)c1noc2ncnc(NCc3cccc(OC)c3)c12`, the RP-LC retention time was 971 s. As for `CCOC(=O)c1noc2nc(C)nc(NCc3ccccc3)c12`, the RP-LC retention time came to 1060 s. `COc1ccc(-c2nnc(N3CCC(C(=O)N4CCN(c5ccccc5)CC4)CC3)o2)cc1` showed an RP-LC retention time of 859 s. As for `Cc1ccccc1-c1noc(Cc2nnc(-c3cccc(Cl)c3)o2)n1`, the figure is 1140 s; as for `CCn1cc(C(CNC(=O)Nc2ccc(OC)cc2OC)c2cccnc2)c2ccccc21` (stereo not drawn), 700 s; as for `O=C(CSc1nnc(-c2ccc3c(c2)OCCO3)o1)N1CCN(c2ccccc2)CC1`, 850 s. Compound `CCOC(=O)N1CCN(Cc2c(O)ccc3ccccc23)CC1` gave an RP-LC retention time of 691 s. Regarding `CCC(=O)NCc1nc2c(n1CC)CN(C(=O)c1cc(C)cc(C)c1)CC2`, the RP-LC retention time was 620 s.

Consider `O=C(NCc1ccc2c(c1)OCO2)c1ccc2c(c1)N(CC(=O)N1CCCC1)C(=O)CO2`, for which the RP-LC retention time came out at 674 s. Compound `O=C(Nc1ccc(Br)cc1)C1CCCN(c2ncc(-c3cccc(F)c3)cn2)C1` (stereo not drawn) showed an RP-LC retention time of 1230 s.

As to `CNC(=O)Nc1ccc(S(N)(=O)=O)cc1`, the RP-LC retention time was found to be 604 s. Turning to `O=C(Nc1ccc(F)c(Cl)c1)C1CCN(S(=O)(=O)c2ccc3[nH]c(=O)ccc3c2)CC1`, the RP-LC retention time came to 812 s. In turn, `Cc1[nH]c(=O)[nH]c(=O)c1CC(=O)N1CCN(c2cccc(Cl)c2Cl)CC1` showed an RP-LC retention time of 654 s. Compound `COc1ccc(OC)c(NC(=O)c2cnn(-c3ccc(Cl)cc3)c2)c1` displayed an RP-LC retention time of 991 s. The compound `COc1ccc(CNC(=O)C2CCN(S(=O)(=O)c3ccc4c(c3)sc(=O)n4C)CC2)cc1` came in with an RP-LC retention time of 795 s. Then `O=c1n(CC2CC2)nc2n1CCC(NS(=O)(=O)Cc1ccccc1)CC2` (stereo not drawn), with 704 s. Turning to `Cc1ccc2ccc(C#N)cc2c1O`, the RP-LC retention time stood at 892 s. `Cc1ccc(-c2cc3c4nnc(SCC(=O)Nc5cccc(C(F)(F)F)c5)n4ccn3n2)cc1` came in with an RP-LC retention time of 1040 s.

`CCCC(NC(=O)c1cccc(Cl)c1)C(=O)Nc1nc2ccccc2[nH]1` (stereo not drawn) returned an RP-LC retention time of 742 s.

`CCc1nn(CC(=O)N2CCN(c3ccccn3)CC2)c(=O)c2cc3ccccc3n12` had an RP-LC retention time of 607 s. The compound `O=C(Nc1ccc2c(c1)CN(S(=O)(=O)c1cccnc1)CCO2)C1CC1` had an RP-LC retention time of 712 s. On to `Cc1ccc(CNC(=O)c2nnc(-c3ccc(S(=O)(=O)N4CCCCC4)cc3)o2)o1`, for which the RP-LC retention time is 952 s. As for `COc1cc(NC(=O)N2CC3CCCN3c3ccccc32)cc(OC)c1OC` (stereo not drawn), the figure is 702 s. Compound `COC(=O)N1CCc2ccc(Br)cc2C1C(=O)Nc1ccon1` (stereo not drawn) registered an RP-LC retention time of 785 s. Then `CN1C(=O)c2cc(C(=O)NCCN3CCCCC3)nn2CC1(C)C(=O)NCc1ccccc1` (stereo not drawn), with 597 s. For `Cc1cccc(NC(=O)N2c3ccccc3NC3=C(C(=O)CCC3)C2c2ccco2)c1C` (stereo not drawn), the RP-LC retention time amounted to 813 s. The compound `COc1ccc(-c2ccnc3nc(Cc4ccc(F)cc4)nn23)c(F)c1` returned an RP-LC retention time of 906 s. In the case of `Cc1ccc(NC(=O)CCCN2C(=O)COc3ccc(C)cc32)c(C)c1`, the RP-LC retention time amounted to 929 s. In turn, `C=CCN1CCN(C(=O)[C@@H]2[C@H](c3cc(OC)c(OC)c(OC)c3)c3cc4c(cc3[C@H](O)[C@H]2CO)OCO4)CC1` had an RP-LC retention time of 604 s. For `O=C1NC2(CCN(C(=O)NCc3ccc(F)cc3)CC2)Nc2c(Cl)cccc21`, the RP-LC retention time is 770 s. In turn, `Cc1c(C(=O)N(C)C)cnn1-c1cc(-c2nc(C(C)(C)C)no2)ccn1` displayed an RP-LC retention time of 922 s. As for `CCN(CC)S(=O)(=O)c1ccc2c(c1)N(CC(=O)NCc1ccc(C)o1)C(=O)C1CCCCN21` (stereo not drawn), the figure is 959 s; as for `Cc1cc(NC(=O)N(C)Cc2nc3cc(C(=O)N(C)C)ccc3n2C)ccc1Br`, 662 s. `COc1cccc(CNC(=O)C2CCCN(c3cnc4nccnc4c3)C2)c1OC` (stereo not drawn) displayed an RP-LC retention time of 675 s. As for `COc1ccc(N2CCN(CCCNC(=O)C3CCCN(c4nccc(C)n4)C3)CC2)cc1` (stereo not drawn), the figure is 603 s; as for `COc1ccccc1-c1nc(C2CCN(C(=O)c3cc4ccccc4[nH]3)CC2)no1`, 930 s; as for `COc1cc([C@@H]2c3cc4c(cc3[C@H](O)[C@@H](CO)[C@@H]2C(=O)NCCc2ccccc2)OCO4)cc(OC)c1OC`, 745 s. `CCC(=O)N1CCc2c(C(=O)NCc3ccc4c(c3)OCO4)cccc21` showed an RP-LC retention time of 718 s. As for `CN(C)c1ccc(CNC(=O)C2CCN(S(=O)(=O)c3ccc4c(c3)CCCC(=O)N4)CC2)cc1`, the RP-LC retention time stood at 607 s. Regarding `CCc1ccc(C2=C(C)C(N3CCC(C(=O)NC)CC3)=NS2(=O)=O)cc1`, the RP-LC retention time is 738 s. The compound `FC(F)(F)c1nnc2c(Sc3ccccc3)nc3ccc(Cl)cc3n12` registered an RP-LC retention time of 1190 s.

In turn, `O=C(c1ccco1)N1CCC[C@H]1c1nc(-c2ccccc2)n[nH]1` returned an RP-LC retention time of 652 s. In turn, `CCc1ccccc1S(=O)(=O)N1CCc2c(c(-c3nc(C4CC4)no3)nn2C)C1` gave an RP-LC retention time of 1010 s. Compound `CCn1ccc(C(=O)N2CCC3(CC2)NCc2ccccc2-n2ccnc23)n1` gave an RP-LC retention time of 579 s.

Compound `N#Cc1cccc(-c2cn3c(n2)N(C(=O)c2ccccn2)CCC3)c1` had an RP-LC retention time of 656 s. For `Cc1ccc(CSc2ccc(-n3nc4c(c3C)CCC4)nn2)cc1`, the RP-LC retention time amounted to 1370 s.
